# Assay results from PubChem BioAssay (NCI).
#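 Protocol summary: plate cells (96-well), add compound at 5 concentrations, incubate 48 h, interpolate endpoints linearly. At the GI50, growth is halved. TGI is the concentration that stops growth completely.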
# Key:
# Assay in all cases: NCI-60 cell line screen, 48 h
# DMS 273 small cell lung = test system: DMS 273 small cell lung
# NCI-H226 lung = test system: NCI-H226 lung
# HCT-15 colon = test system: HCT-15 colon
# NCI-H522 lung = test system: NCI-H522 lung
# DMS 114 small cell lung = test system: DMS 114 small cell lung
# SW-620 colon = test system: SW-620 colon
# K-562 leukemia = test system: K-562 leukemia
# SK-MEL-28 melanoma = test system: SK-MEL-28 melanoma
# LXFL 529 NSCLC = test system: LXFL 529 NSCLC
# DLD-1 colon = test system: DLD-1 colon
# DU-145 prostate = test system: DU-145 prostate
# HS 578T breast = test system: HS 578T breast
Compound,TGI (DMS 273 small cell lung) [µM],TGI (NCI-H226 lung) [µM],TGI (HCT-15 colon) [µM],TGI (NCI-H522 lung) [µM],TGI (DMS 114 small cell lung) [µM],TGI (SW-620 colon) [µM],TGI (K-562 leukemia) [µM],TGI (SK-MEL-28 melanoma) [µM],TGI (LXFL 529 NSCLC) [µM],TGI (DLD-1 colon) [µM],GI50 (NCI-H226 lung) [µM],GI50 (HCT-15 colon) [µM],GI50 (NCI-H522 lung) [µM],GI50 (SW-620 colon) [µM],GI50 (DU-145 prostate) [µM],TGI (DU-145 prostate) [µM],GI50 (K-562 leukemia) [µM],GI50 (SK-MEL-28 melanoma) [µM],GI50 (HS 578T breast) [µM],TGI (HS 578T breast) [µM]
Cc1cnc2ccc(C)c([N+](=O)[O-])c2c1NCCCN(C)C,> 100,> 100,> 100,> 100,> 100,> 100,> 100,> 100,,,,,,,,,,,,
CN(CCS(=O)(=O)N1C(=O)C2CCCN2C(=O)[C@@H]1Cc1ccccc1)C(=O)OCc1ccccc1 (some centres undefined),,> 100,> 100,> 100,> 100,> 100,> 100,> 100,> 100,> 100,,,,,,,,,,
COc1ccc(Cc2c3cc(O)c(=O)cc-3ccn2C)cc1,> 100,83.3,,> 100,62.4,> 100,> 100,> 92.9,,> 100,,,,,,,,,,
CC(C)N(C(=O)C12C3C4C5(C#N)C3C1(C#N)C5C42C#N)C(C)C (centres undefined),> 100,> 100,,> 100,> 100,> 100,> 100,> 100,> 100,> 100,,,,,,,,,,
O=C(CCC(=O)Nc1ccc(Cl)c(Cl)c1)Cc1nc2ccccc2o1,> 100,> 100,> 100,> 100,> 100,> 100,> 100,> 100,> 100,,,,,,,,,,,
CC(=O)Nc1ccc(/C=C/C(=O)c2sc(-c3cccnc3)nc2C)cc1,> 100,> 100,> 100,> 100,> 100,> 100,> 100,> 100,,> 100,,,,,,,,,,
CC1=N/C(=C/c2ccc3c(c2)OCO3)C(=O)O1,> 100,,> 100,> 100,> 100,> 100,> 100,> 100,> 100,,,,,,,,,,,
NNC(=O)C(=O)N/N=C(\CCCC(=O)Nc1ccc(Cl)cc1)CC(=O)c1ccc(F)cc1,,> 100,,,> 100,> 100,,> 100,> 100,> 100,,,,,,,,,,
CC(C)C[C@H](NC(=O)CNC(=O)c1cc(Cl)ccc1Cl)B(O)O,,5.09,,0.0414,,,1.21,0.174,,,0.416,0.0272,0.0164,< 0.0173,< 0.0262,15.3,0.03,< 0.0175,0.0489,> 50.4
COc1ccccc1Nc1cc(O)c2c(=O)cc(-c3ccccc3)oc2c1,,28.8,> 100,27.1,,> 100,> 100,25.8,,,4.38,1.65,2.67,2.5,4.35,16.4,0.59,3.64,3.61,32.6
CCc1nc(N)nc(N)c1-c1ccc(Cl)c([N+](=O)[O-])c1,,> 100,> 100,> 100,,> 100,> 100,> 100,,,,,,,,> 100,,,,> 100
O=C(O)CSc1n[nH]c(=O)[nH]c1=O,,> 100,> 100,> 100,,> 100,> 100,> 100,,,,,,,,> 100,,,,> 100
CCOC(=O)Cc1c(C)c2cc(C(=O)c3ccccc3)c(O)cc2oc1=O,,> 100,> 100,68.7,,> 100,71.8,> 100,,,,,,,,> 100,,,,97.1
O=c1oc2ccc(I)cc2c(=O)n1-c1ccc(Br)cc1F,,4.39,7.89,4.85,,9.68,> 71.7,2.03,,,1.27,1.28,0.396,1.1,1.04,28.8,0.536,0.404,0.345,3.14
CNC(=O)c1ccc(N2C(=S)N(c3cnc(C#N)c(C(F)(F)F)c3)C(=O)C23CCC3)cc1F,,> 100,> 100,> 100,,> 100,> 100,> 100,,,> 100,> 100,> 100,> 100,> 100,> 100,> 100,> 100,> 100,> 100
CCN(CC)CCCNc1nccc2c(C)c3c(cc12)c1cnccc1n3C,0.181,,0.779,,0.463,1.48,1.04,1.47,,0.266,,,,,,,,,,
Cc1c(-c2cnccn2)ssc1=S,,> 100,> 100,> 89.8,,> 100,> 100,> 100,,,,,,,,> 100,,,,91.8
CCC[C@H]1O[C@@H]2CC(=O)O[C@@H]2C2=C1C(=O)C=CC2=O,19.5,18.4,32.4,4.68,,35.7,> 46.5,31.5,29.6,35.8,,,,,,,,,,
COC1CCC(OS(C)(=O)=O)C(CO)O1 (centres undefined),,,> 100,> 100,,> 100,> 100,> 100,> 100,> 100,,,,,,,,,,
COc1ccc(Nc2nc3cc(N)cc(N)c3nc2-c2ccccc2)cc1,,98.4,45,27.9,,37,> 100,30.5,,,23.8,15.3,14.7,22.5,39.3,> 100,29.8,16.8,14.3,46.5
Cc1c(C)c2ccc3oc4ccccc4c3c2oc1=O,,> 100,> 100,> 100,> 100,> 100,> 100,> 100,> 100,> 100,,,,,,,,,,
Oc1c(Cl)cc(Cl)c(Cl)c1CNCCNCc1c(O)c(Cl)cc(Cl)c1Cl,,18.1,11.6,8.24,,> 50,> 50,8.64,,,4.1,0.282,1.28,1.71,2.09,12.6,0.483,1.02,5.32,27.9
COc1cc2c(cc1OC(C)C)[C@H](c1ccc(Cl)cc1)N(c1ccc(N(C)CC3CCC(N4CCN(C)C(=O)C4)CC3)cc1)C(=O)C2 (some centres undefined),,1.7,5.79,10.4,,10,16.9,4.29,,,0.311,1.95,3.9,4.6,5.3,11.2,3.56,2,3.48,13.1
COc1cc(/C=C/c2cc(/C=C/c3ccc(O)c(OC)c3)n(C(=O)c3ccc(Cl)cc3)n2)ccc1O,,23.2,26.1,4.32,,13.8,16.4,12.2,,,3.51,1.54,0.595,3.12,3.03,13.9,0.807,2.49,3.23,> 100
O=C(O)CCNCC(=O)O,,> 100,> 100,> 100,,> 100,> 100,> 100,,,,,,,,> 100,,,,> 100
Cc1onc(-c2ccccc2)c1C(=O)N/N=C/c1cc(Cl)cc(Cl)c1O,,72.7,> 100,33.6,,> 100,55.9,> 100,,,8.47,2.05,3.67,6.81,6.72,> 100,4.58,6.51,17.8,> 100
C/C(=N\N=C(N)N)C(CN1CCCCC1)C(c1ccccc1)c1c(O)c2ccccc2oc1=O (centres undefined),,> 100,> 100,> 100,> 100,> 100,> 100,> 100,> 100,> 100,,,,,,,,,,
CN(Cc1ccccc1)Cn1ccnc1,,> 100,> 100,> 100,,> 100,> 100,> 68,,,,,,,,> 100,,,,> 100
O=C1N[C@@H]2[C@@H](O)[C@@H](O)[C@H](O)C[C@H]2c2cc3c(c(O)c21)OCCO3,,1.08,1.8,0.993,,1.55,11.2,1.23,,,0.273,0.27,0.199,0.233,0.229,0.84,0.13,0.274,0.27,0.976
O=C(CN(/C=C/C(=O)C(F)(F)F)c1ccc(Cl)cc1)c1ccc(Cl)cc1,,29.4,20.4,5.93,,23.7,32.5,39.5,,,14.8,6.83,2.1,10.2,15.1,29.5,5.93,16.6,13.8,42.5
